Test results: article PMC7377239, “Cardiovascular Effects of Polychlorinated Biphenyls and Their Major Metabolites” (Environmental Health Perspectives, 2020)
Structures can show the parent of a compound that is named as a salt. Where two headings read alike, the source gives them in different places.

Tested on: iCell cardiomyocytes (human iPSC-derived cardiomyocytes)
Test: Intracellular Ca2+ flux / beating parameters in iCell cardiomyocytes (FLIPR tetra), 90 min or 24 h
Assay type: cell-based
Details: Homo sapiens, Cardiomyocyte, 0.00 µM = 100.00; for activity at 0.1 µM: 0.10 µM
Description: Details on cardiomyocyte cell culture are described in detail elsewhere ([Grimm et al. 2015b]; [Sirenko et al. 2013a]). Briefly, tissue-culture treated 384 well plates were gelatinized with 25μL per well of 0.1% (w/v) gelatin in water for 2 h at 37°C and 5% CO2 . Individual vials of cells were thawed for 4 min in a water bath maintained at 37°C. Thawed cells were resuspended in 10ml plating medium containing 1:500 (vol/vol) penicillin/streptomycin solution at room temperature (RT). Live cell counts for each cell suspension were determined by trypan blue staining and cells were further diluted to provide final cell densities of 2×10^5 viable cells/ml. Thus, 5,000 cells suspended in 25μL media were transferred per well after the gelatin solution had been discarded. Cell culture plates were rested for 30 min at RT before they were incubated for 48 h at 37°C and 5% CO2 . Then, a media exchange with 30μL of fresh maintenance medium containing 1:500 (vol/vol) penicillin/streptomycin solution was performed, and cell media were subsequently changed every 48 h for 12 d. On the experiment day, the medium was completely exchanged with either 25μL (for Ca^2+ flux assay) or 40μL (for imaging) of fresh medium.
Responses of iCell®-cardiomyocytes to drugs and chemicals were evaluated using intracellular Ca^2+ flux measurements ([Grimm et al. 2015b]; [Sirenko et al. 2013b]). For experiments, 20 mM stock solutions of PCBs and PCB metabolites were prepared in DMSO ( 200× ). Chemical working solutions ( 5× ) were prepared using cardiomyocyte maintenance medium and contained 2.5% (vol/vol) DMSO. These chemical master plates were prepared to include all chemicals in concentration–response (0.05, 0.5, 5, 50, and 500μM ). Negative controls included media-only and vehicle control (i.e., 0.5% vol/vol DMSO in cell culture media) wells. Positive assay controls were consistent with previously published reports ([Grimm et al. 2018]) and included TAB ( 50μM ) as a cytotoxic control, and isoproterenol ( 0.1–10μM ), propranolol ( 0.1–5 μM ), cisapride ( 0.01–1μM ), and doxorubicin ( 0.1–5μM ) as chemicals associated with specific effects on beating and ion flux. Each test chemical was screened in triplicate for each concentration.
Experiments started with the addition of 25μL of prewarmed 2× concentrated calcium dye reagent to sample wells containing 25μL maintenance media. Microplates were then acclimated for 2 h at 37°C. Following equilibration, cardiomyocyte sample wells were treated simultaneously by the addition of 12.5μL of prewarmed 5× chemical solution to iCell®-cardiomyocytes using the automated liquid handler in the FLIPR tetra (Molecular Devices). Treated cell cultures were incubated for either 90 min or 24 h. After the conclusion of the treatment period, the Ca^2+ flux was measured for 100 s at a frequency of 8 Hz using the integrated fluorescence plate reader in the FLIPR tetra (Molecular Devices) using an emission wavelength range of λemission=515–575 nm ( λexcitation=470–495 nm ). Additional instrument settings included exposure time per read of 0.05s, a gain of 2000, an excitation intensity of 30%, and an internal temperature of 37°C.
Ca^2+ flux data were processed in R studio (version 1.0.136, with R version 3.3.2; R Development Core Team) as described elsewhere ([Blanchette et al. 2019]; [Burnett et al. 2019]). Calculated quantitative metrics included the means and coefficients of variation (CV) of the peak height, which can be indicative of cytotoxicity, inhibition, or stimulation of beating. Means of peak frequency, an indicator of positive or negative […], and CV of peak spacing, an indicator of irregular beating, were also derived from Ca^2+ flux traces. Finally, the mean ratio of the decay over rise time was calculated. Increases in the decay/rise time ratio are reflective of delayed repolarization and are a measure for QT prolongation. […]

[1] = 1.5 h, read-out: cm.amp.avg.90min
[2] = 1.5 h, read-out: cm.amp.cv.90min
[3] = 1.5 h, read-out: cm.decay.rise.90min
[4] = 1.5 h, read-out: cm.spacing.cv.90min
[5] = 24 h, read-out: cm.amp.avg.24hrs
[6] = 24 h, read-out: cm.amp.cv.24hrs
[7] = 24 h, read-out: cm.decay.rise.24hrs
[8] = 24 h, read-out: cm.spacing.cv.24hrs

Question: Which results are given for `O=S(=O)(O)Oc1cccc(-c2ccc(Cl)cc2)c1` [3'-yl PCB 3 sulfate]?
Answer: activity at 0.01 µM [1]: 106%; activity at 0.01 µM [2]: 121%; activity at 0.01 µM (1.5 h, read-out: cm.bpm.90min): 96.5%; activity at 0.01 µM [3]: 95.8%; activity at 0.01 µM [4]: 108%; activity at 0.1 µM [1]: 106%; activity at 0.1 µM [2]: 103%; activity at 0.1 µM (1.5 h, read-out: cm.bpm.90min): 100%; activity at 0.1 µM [3]: 99.3%; activity at 0.1 µM [4]: 110%; activity at 1 µM [1]: 111%; activity at 1 µM [2]: 84.7%; activity at 1 µM (1.5 h, read-out: cm.bpm.90min): 99.1%; activity at 1 µM [3]: 96.2%; activity at 1 µM [4]: 94.2%; activity at 10 µM [1]: 109%; activity at 10 µM [2]: 88.3%; activity at 10 µM (1.5 h, read-out: cm.bpm.90min): 100%; activity at 10 µM [3]: 95.3%; activity at 10 µM [4]: 94.3%; activity at 100 µM [1]: 109%; activity at 100 µM [2]: 86.7%; activity at 100 µM (1.5 h, read-out: cm.bpm.90min): 91.5%; activity at 100 µM [3]: 99.4%; activity at 100 µM [4]: 107%; activity at 0.01 µM [5]: 79%; activity at 0.01 µM [6]: 31.6%; activity at 0.01 µM (24 h, read-out: cm.bpm.24hrs): 52.5%; activity at 0.01 µM [7]: 45.2%; activity at 0.01 µM [8]: 48.7%; activity at 0.1 µM [5]: 60.9%; activity at 0.1 µM [6]: 151%; activity at 0.1 µM (24 h, read-out: cm.bpm.24hrs): 102%; activity at 0.1 µM [7]: 90.7%; activity at 0.1 µM [8]: 98.6%; activity at 1 µM [5]: 86.6%; activity at 1 µM [6]: 96.4%; activity at 1 µM (24 h, read-out: cm.bpm.24hrs): 89.7%; activity at 1 µM [7]: 117%; activity at 1 µM [8]: 96.2%; activity at 10 µM [5]: 75%; activity at 10 µM [6]: 122%; activity at 10 µM (24 h, read-out: cm.bpm.24hrs): 101%; activity at 10 µM [7]: 98.6%; activity at 10 µM [8]: 93.8%; activity at 100 µM [5]: 85%; activity at 100 µM [6]: 91.8%; activity at 100 µM (24 h, read-out: cm.bpm.24hrs): 92.6%; activity at 100 µM [7]: 99%; activity at 100 µM [8]: 87.7%

Question: Which activity at 0.01 µM [1] does the source give for `O=S(=O)(O)Oc1cc(-c2ccccc2)ccc1Cl` [3-yl PCB 3 sulfate] here?
Answer: 95.2%

Question: What about the activity at 0.01 µM [2] of the same compound?
Answer: 101%

Question: And the activity at 0.01 µM (1.5 h, read-out: cm.bpm.90min)?
Answer: 96.5%

Question: And the activity at 0.01 µM [3]?
Answer: 101%

Question: What about the activity at 0.01 µM [4] of the same compound?
Answer: 112%

Question: What about the activity at 0.1 µM [1] of the same compound?
Answer: 102%

Question: What about the activity at 0.1 µM [2] of the same compound?
Answer: 103%

Question: What about the activity at 0.1 µM (1.5 h, read-out: cm.bpm.90min) of the same compound?
Answer: 97.8%

Question: And the activity at 0.1 µM [3]?
Answer: 105%

Question: What about the activity at 0.1 µM [4] of the same compound?
Answer: 107%

Question: What about the activity at 1 µM [1] of the same compound?
Answer: 96.9%

Question: What about the activity at 1 µM [2] of the same compound?
Answer: 94.9%

Question: And the activity at 1 µM (1.5 h, read-out: cm.bpm.90min)?
Answer: 99.1%

Question: And the activity at 1 µM [3]?
Answer: 97.7%

Question: And the activity at 1 µM [4]?
Answer: 102%

Question: And the activity at 10 µM [1]?
Answer: 97.3%

Question: And the activity at 10 µM [2]?
Answer: 107%

Question: What about the activity at 10 µM (1.5 h, read-out: cm.bpm.90min) of the same compound?
Answer: 96.5%

Question: What about the activity at 10 µM [3] of the same compound?
Answer: 96.9%

Question: And the activity at 10 µM [4]?
Answer: 101%

Question: What about the activity at 100 µM [1] of the same compound?
Answer: 113%

Question: What about the activity at 100 µM [2] of the same compound?
Answer: 90.5%

Question: And the activity at 100 µM (1.5 h, read-out: cm.bpm.90min)?
Answer: 99.1%

Question: What about the activity at 100 µM [3] of the same compound?
Answer: 95.6%

Question: What about the activity at 100 µM [4] of the same compound?
Answer: 92.1%

Question: What about the activity at 0.01 µM [5] of the same compound?
Answer: 58.6%

Question: And the activity at 0.01 µM [6]?
Answer: 42.1%

Question: And the activity at 0.01 µM (24 h, read-out: cm.bpm.24hrs)?
Answer: 49.6%

Question: And the activity at 0.01 µM [7]?
Answer: 54.9%

Question: What about the activity at 0.01 µM [8] of the same compound?
Answer: 62.7%

Question: What about the activity at 0.1 µM [5] of the same compound?
Answer: 51.9%

Question: What about the activity at 0.1 µM [6] of the same compound?
Answer: 31.8%

Question: And the activity at 0.1 µM (24 h, read-out: cm.bpm.24hrs)?
Answer: 47.7%

Question: And the activity at 0.1 µM [7]?
Answer: 58%

Question: And the activity at 0.1 µM [8]?
Answer: 42.3%

Question: What about the activity at 1 µM [5] of the same compound?
Answer: 26.2%

Question: What about the activity at 1 µM [6] of the same compound?
Answer: 69.1%

Question: And the activity at 1 µM (24 h, read-out: cm.bpm.24hrs)?
Answer: 46.8%

Question: What about the activity at 1 µM [7] of the same compound?
Answer: 51.2%

Question: And the activity at 1 µM [8]?
Answer: 53.3%

Question: And the activity at 10 µM [5]?
Answer: 79.1%

Question: What about the activity at 10 µM [6] of the same compound?
Answer: 146%

Question: And the activity at 10 µM (24 h, read-out: cm.bpm.24hrs)?
Answer: 94.5%

Question: And the activity at 10 µM [7]?
Answer: 96.3%

Question: What about the activity at 10 µM [8] of the same compound?
Answer: 96.4%

Question: What about the activity at 100 µM [5] of the same compound?
Answer: 97.7%

Question: And the activity at 100 µM [6]?
Answer: 77.4%

Question: What about the activity at 100 µM (24 h, read-out: cm.bpm.24hrs) of the same compound?
Answer: 85%

Question: And the activity at 100 µM [7]?
Answer: 116%

Question: What about the activity at 100 µM [8] of the same compound?
Answer: 85.3%
